# Ends that are not written are not given here.
# Tests used:
# [1] = high dosages of 50 mg per kg body weight per day or higher; no test or source given; cited from earlier work
# J-96 Human Cell Line = settings: cell cultures; R. Ataullakhanov et al. 2005; cited from earlier work
# SARS-CoV-2 = test: Case reports: subcutaneous Ezrin peptide 1 in patients with COVID-19; assay type: in vivo, humans
sequence,measurement,setting,value
"TEKKRRETVEREKE [Ezrin peptide 1, NH2_Thr-Glu-Lys-Lys-Arg-Arg-Glu-Thr-Val-Glu-Arg-Glu-Lys-Glu_COOH]",toxicity,[1],not toxic
same,anti-viral effect,J-96 Human Cell Line,has shown an anti-viral effect
same,Course of Disease (symptoms),"SARS-CoV-2; Example 1, patient, 0.2 mg s.c. daily, 15.03.2020, 2nd administration",increasing symptoms
same,Course of Disease (symptoms),"SARS-CoV-2; Example 1, 0.2 mg s.c. daily, 16.03.2020, 3rd administration",increasing symptoms with strong eye pain
same,Course of Disease (symptoms),"SARS-CoV-2; Example 1, 0.2 mg s.c. daily, 17.03.2020, 4th administration",increasing symptoms with more cough
same,Course of Disease (symptoms),"SARS-CoV-2; Example 1, 0.2 mg s.c. daily, 18.03.2020, 5th administration","significant signs of recovery, no eye pain, decreasing fever"
same,Course of Disease (symptoms),"SARS-CoV-2; Example 1, 0.2 mg s.c. daily, 19.03.2020, 6th administration","significant signs of recovery, normal body temperature, no fatigue"
same,Course of Disease (symptoms),"SARS-CoV-2; Example 1, 0.2 mg s.c. daily, 20.03.2020, 7th administration","return of taste, good general condition"
same,Course of Disease (symptoms),"SARS-CoV-2; Example 1, 0.2 mg s.c. daily, 21.03.2020, 8th administration",no signs of illness anymore
same,course of the disease (duration),"SARS-CoV-2; Example 1, compared with the course expected for patients of this risk group",significantly shorter
same,severity of symptoms after administration,"SARS-CoV-2; Example 1, compared with what is expected in a patient of this risk group",significantly lower
same,body temperature,"SARS-CoV-2; Example 2, patient, 2 mg s.c. per dose, 25.04.2020 in the morning, second dose",37.5 °C
same,body temperature,"SARS-CoV-2; Example 2, 2 mg s.c., 25.04.2020 in the evening",39.0 °C
same,Course of Disease (symptoms),"SARS-CoV-2; Example 2, 2 mg s.c., 25.04.2020, second dose","still general weakness, shortness of breath, cough, loss of appetite"
same,body temperature,"SARS-CoV-2; Example 2, 2 mg s.c., 26.04.2020 in the evening",37.5 °C
same,Course of Disease (symptoms),"SARS-CoV-2; Example 2, 2 mg s.c., 26.04.2020, third administration","Still loss of appetite, slight cough"
same,body temperature,"SARS-CoV-2; Example 2, 2 mg s.c., 27.04.2020",37.4 °C
same,Course of Disease (symptoms),"SARS-CoV-2; Example 2, 2 mg s.c., 27.04.2020, fourth dose","Slight cough, slight headache"
same,body temperature,"SARS-CoV-2; Example 2, 2 mg s.c., 28.04.2020",37.3 °C
same,Course of Disease (symptoms),"SARS-CoV-2; Example 2, 2 mg s.c., 28.04.2020, fifth administration","Only slight pain of touching the scalp, still slight weakness"
same,Course of Disease (symptoms),"SARS-CoV-2; Example 2, 2 mg s.c., 30.04.2020, sixth administration","Significant improvement of clinical symptoms, normal temperature"
same,Course of Disease (symptoms),"SARS-CoV-2; Example 2, 01. to 04.05.2020, after six doses, antibiotic coverage due to increased CRP level","taste completely returned, no more cough, no more fever, clinical well-being"
same,Course of Disease (symptoms),"SARS-CoV-2; Example 3, patient, 2 mg/d then 0.2 mg/d for four days s.c., 25.12.2020 (therapy begun 23.12.2020)",significant improvement of cough and general condition
same,Course of Disease (symptoms),"SARS-CoV-2; Example 3, after completion of HEP-1 therapy",No further symptoms
same,Course of Disease (symptoms),"SARS-CoV-2; Example 4, patient, 2 mg/d for two days then 0.2 mg/d for four days s.c., 25.12.2020 (therapy begun 23.12.2020)",significant improvement of cough and general condition
same,Course of Disease (symptoms),"SARS-CoV-2; Example 4, after completion of HEP-1 therapy",No further symptoms
same,Course of Disease (symptoms),"SARS-CoV-2; Example 5, patient, 2 mg/d for two days then 0,2 mg/d for four days s.c., 26.12.2020 (therapy begun 23.12.2020)",significant improvement of symptoms
same,Course of Disease (symptoms),"SARS-CoV-2; Example 5, after completion of the initial HEP-1 therapy","No further symptoms after completion of HEP-1 therapy until 13.01.2021, then severe shortness of breath"
same,Course of Disease (shortness of breath),"SARS-CoV-2; Example 5, after subsequent 0,2 mg/d s.c. for fourteen days from 15.01.2021",No further shortness of breath
same,Course of Disease (symptoms),"SARS-CoV-2; Example 6, patient, 0.2 mg/d s.c. for ten days from 10.12.2020, 14.12.2020",significant improvement of symptoms
same,Course of Disease (symptoms),"SARS-CoV-2; Example 6, 0.2 mg/d s.c. for ten days, 20.12.2020",complete recovery of symptoms
